Legend:
T47D cells = test: Cellular growth inhibition assay for T47D cells, CellTiter-Glo; assay type: cell-based, human; conditions: 72 hours treatment, CellTiter-Glo 2.0 cell viability
How it was run: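 Cells are plated at 3000/well and allowed 24 h before treatment. Test compound in medium containing 0.5% DMSO is then added, with DMSO-only wells as negative control, and plates are incubated 72 h at 37 °C. ATP luminescence (CellTiter-Glo 2.0) is then fitted to four parameters to derive GI50.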

[1] = tested on: T-Rex 293 cell line SC3 cells having increased expression of androgen receptor protein due to exposure to doxycycline; test: Cellular growth inhibition, T-Rex 293 SC3 cells with doxycycline (androgen receptor induced), CellTiter-Glo; assay type: cell-based; conditions: T-Rex 293 SC3 cells with 10 ng/mL doxycycline (increased androgen receptor expression)
How it was run: (§1)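 With DMSO (0.5%) vehicle as negative control, compounds treated SC3 cells for 72 h in medium containing charcoal-dextran FBS ± doxycycline. This T-Rex 293 clone expresses transfected wild-type AR on induction. Readout: CellTiter-Glo 2.0; GI50 by nonlinear regression.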

VCaP cells = test: Cellular growth inhibition assay for VCaP cells, CellTiter-Glo; assay type: cell-based, human; conditions: 72 hours treatment, CellTiter-Glo 2.0
How it was run: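 GI50 values come from four-parameter curve fits of luminescence data normalized to a zero baseline. Compound, in medium with 0.5% DMSO, was added one day after plating and left for 72 h before CellTiter-Glo 2.0 addition.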

[2] = tested on: T-Rex 293 cell line SC3 cells lacking increased expression of androgen receptor protein; test: Cellular growth inhibition, T-Rex 293 SC3 cells without doxycycline, CellTiter-Glo; assay type: cell-based; conditions: T-Rex 293 SC3 cells not exposed to doxycycline, CellTiter-Glo 2.0
How it was run: as §1

GI50 (T47D cells; Homo sapiens, T47D, 72 h) [nM] | GI50 (VCaP cells; Homo sapiens, VCaP, 72 h) [nM] | GI50 (T47D cells) [nM] | GI50 (VCaP cells) [nM] | SMILES | GI50 ([1]; 72 h) [nM] | GI50 ([2]; 72 h) [nM] | GI50 ([1]; 72 hours) [nM] | GI50 ([2]; 72 hours) [nM]
500 to 1500 | < 500 |  |  | Cc1sc2c(c1C)C(c1ccc(N3CCC(CNC(=O)c4ncc(C(=O)N[C@H]5C(C)(C)[C@H](Oc6ccc(C#N)c(Cl)c6)C5(C)C)cn4)CC3)cc1)=N[C@H](Cc1ncco1)c1nnc(C)n1-2 [Compound I-291] | < 500 | 500 to 1500 |  | 
> 3000 | 500 to 1500 |  |  | Cc1sc2c(c1C)C(c1ccc(CNC(=O)CNC(=O)c3ncc(C(=O)N[C@H]4C(C)(C)[C@H](Oc5ccc(C#N)c(Cl)c5)C4(C)C)cn3)cc1)=N[C@@H](Cc1ncco1)c1nnc(C)n1-2 [Compound I-292] | > 3000 | > 3000 |  | 
> 3000 | > 3000 |  |  | Cc1sc2c(c1C)C(c1ccc(C(=O)N3CCC(N(C)c4ncc(C(=O)N[C@H]5C(C)(C)[C@H](Oc6ccc(C#N)c(Cl)c6)C5(C)C)cn4)CC3)cc1)=N[C@@H](Cc1ncco1)c1nnc(C)n1-2 [Compound I-293] | < 500 | > 3000 |  | 
500 to 1500 | 1500 to 3000 |  |  | Cc1sc2c(c1C)C(c1ccc(C(=O)N3CCC(N(C)c4ncc(C(=O)N[C@H]5C(C)(C)[C@H](Oc6ccc(C#N)c(Cl)c6)C5(C)C)cn4)CC3)cc1)=N[C@H](Cc1ncco1)c1nnc(C)n1-2 [Compound I-294] | < 500 | > 3000 |  | 
< 500 | < 500 |  |  | Cc1sc2c(c1C)C(c1ccc([C@@H]3CCCN(c4ncc(C(=O)N[C@H]5C(C)(C)[C@H](Oc6ccc(C#N)c(Cl)c6)C5(C)C)cn4)C3)cc1)=N[C@@H](Cc1ncco1)c1nnc(C)n1-2 [Compound I-295] | < 500 | < 500 |  | 
< 500 | < 500 |  |  | Cc1sc2c(c1C)C(c1ccc(C[C@@H]3CCCN(c4ncc(C(=O)N[C@H]5C(C)(C)[C@H](Oc6ccc(C#N)c(Cl)c6)C5(C)C)cn4)C3)cc1)=N[C@@H](Cc1ncco1)c1nnc(C)n1-2 [Compound I-296] | < 500 | 500 to 1500 |  | 
< 500 | < 500 |  |  | Cc1sc2c(c1C)C(c1ccc(C[C@H]3CCCN(c4ncc(C(=O)N[C@H]5C(C)(C)[C@H](Oc6ccc(C#N)c(Cl)c6)C5(C)C)cn4)C3)cc1)=N[C@@H](Cc1ncco1)c1nnc(C)n1-2 [Compound I-297] | < 500 | 500 to 1500 |  | 
< 500 | < 500 |  |  | Cc1sc2c(c1C)C(c1ccc(CC[C@H]3CCCC(c4ncc(C(=O)N[C@H]5C(C)(C)[C@H](Oc6ccc(C#N)c(Cl)c6)C5(C)C)cn4)C3)cc1)=N[C@@H](Cc1ncco1)c1nnc(C)n1-2 (stereo partly drawn) [Compound I-298] | < 500 | < 500 |  | 
1500 to 3000 | < 500 |  |  | Cc1sc2c(c1C)C(c1ccc(CC[C@@H]3CCCN(c4ncc(C(=O)N[C@H]5C(C)(C)[C@H](Oc6ccc(C#N)c(Cl)c6)C5(C)C)cn4)C3)cc1)=N[C@@H](Cc1ncco1)c1nnc(C)n1-2 [Compound I-299] | < 500 | 500 to 1500 |  | 
< 500 | < 500 |  |  | Cc1sc2c(c1C)C(c1ccc(OCC[C@@H]3CCCN(c4ncc(C(=O)N[C@H]5C(C)(C)[C@H](Oc6ccc(C#N)c(Cl)c6)C5(C)C)cn4)C3)cc1)=N[C@@H](Cc1ncco1)c1nnc(C)n1-2 [Compound I-300] | < 500 | 500 to 1500 |  | 
< 500 | < 500 |  |  | Cc1sc2c(c1C)C(c1ccc(OCC[C@H]3CCCN(c4ncc(C(=O)N[C@H]5C(C)(C)[C@H](Oc6ccc(C#N)c(Cl)c6)C5(C)C)cn4)C3)cc1)=N[C@@H](Cc1ncco1)c1nnc(C)n1-2 [Compound I-301] | < 500 | 500 to 1500 |  | 
< 500 | < 500 |  |  | Cc1sc2c(c1C)C(c1ccc([C@H]3CCCN(c4ncc(C(=O)N[C@H]5C(C)(C)[C@H](Oc6ccc(C#N)c(Cl)c6)C5(C)C)cn4)C3)cc1)=N[C@@H](Cc1ncco1)c1nnc(C)n1-2 [Compound I-302] | < 500 | 500 to 1500 |  | 
< 500 | < 500 |  |  | Cc1sc2c(c1C)C(c1ccc(C[C@H]3CC[C@@H]4CN(c5ncc(C(=O)N[C@H]6C(C)(C)[C@H](Oc7ccc(C#N)c(Cl)c7)C6(C)C)cn5)CCN4C3)cc1)=C[C@H](Cc1ncco1)c1nnc(C)n1-2 [Compound I-306] | < 500 | < 500 |  | 
< 500 | < 500 |  |  | Cc1sc2c(c1C)C(c1ccc(C[C@H]3CC[C@@]4(C3)CN(c3ncc(C(=O)N[C@H]5C(C)(C)[C@H](Oc6ccc(C#N)c(Cl)c6)C5(C)C)cn3)CCO4)cc1)=N[C@@H](Cc1ncco1)c1nnc(C)n1-2 [Compound I-311] | < 500 | < 500 |  | 
1500 to 3000 | < 500 |  |  | Cc1sc2c(c1C)C(c1ccc(C[C@@H]3CC[C@]4(C3)CN(c3ncc(C(=O)N[C@H]5C(C)(C)[C@H](Oc6ccc(C#N)c(Cl)c6)C5(C)C)cn3)CCO4)cc1)=N[C@H](Cc1ncco1)c1nnc(C)n1-2 [Compound I-312] | < 500 | < 500 |  | 
< 500 | < 500 |  |  | Cc1sc2c(c1C)C(c1ccc(N3CCC[C@H](C(=O)N4CCCC4c4ncc(C(=O)N[C@H]5C(C)(C)[C@H](Oc6ccc(C#N)c(Cl)c6)C5(C)C)cn4)C3)cc1)=N[C@@H](Cc1ncco1)c1nnc(C)n1-2 (stereo partly drawn) [Compound I-314] | < 500 | > 3000 |  | 
500 to 1500 | < 500 |  |  | Cc1sc2c(c1C)C(c1ccc(CN(C)C(=O)CCc3ncc(C(=O)N[C@H]4C(C)(C)[C@H](Oc5ccc(C#N)c(Cl)c5)C4(C)C)cn3)cc1)=N[C@@H](Cc1ncco1)c1nnc(C)n1-2 [Compound I-317] | 1500 to 3000 | > 3000 |  | 
< 500 | < 500 |  |  | Cc1sc2c(c1C)C(c1ccc(C[C@H]3CC[C@H]4CN(c5ncc(C(=O)N[C@H]6C(C)(C)[C@H](Oc7ccc(C#N)c(Cl)c7)C6(C)C)cn5)CCN4C3)cc1)=NC(Cc1ncco1)c1nnc(C)n1-2 (stereo partly drawn) [Compound I-324] | > 3000 | < 500 |  | 
500 to 1500 | > 3000 |  |  | Cc1sc2c(c1C)C(c1ccc(OC3CCN(C4CCN(c5ncc(C(=O)N[C@H]6C(C)(C)[C@H](Oc7ccc(C#N)c(Cl)c7)C6(C)C)cn5)CC4)CC3)cc1)=N[C@@H](C)c1nnc(C)n1-2 [Compound I-325] | < 500 | 1500 to 3000 |  | 
1500 to 3000 | 500 to 1500 |  |  | Cc1sc2c(c1C)C(c1ccc(CNC(=O)NCc3ncc(C(=O)N[C@H]4C(C)(C)[C@H](Oc5ccc(C#N)c(Cl)c5)C4(C)C)cn3)cc1)=N[C@@H](Cc1ncco1)c1nnc(C)n1-2 [Compound I-326] | 500 to 1500 | > 3000 |  | 
> 3000 | > 3000 |  |  | Cc1sc2c(c1C)C(c1ccc(C(=O)N3CCN(Cc4ncc(C(=O)N[C@H]5C(C)(C)[C@H](Oc6ccc(C#N)c(Cl)c6)C5(C)C)cn4)CC3)cc1)=N[C@@H](Cc1ncco1)c1nnc(C)n1-2 [Compound I-327] | > 3000 | > 3000 |  | 
1500 to 3000 | > 3000 |  |  | Cc1sc2c(c1C)C(c1ccc(C(=O)N3CCN(Cc4ncc(C(=O)N[C@H]5C(C)(C)[C@H](Oc6ccc(C#N)c(Cl)c6)C5(C)C)cn4)CC3)cc1)=N[C@H](Cc1ncco1)c1nnc(C)n1-2 [Compound I-328] | 1500 to 3000 | > 3000 |  | 
< 500 | < 500 |  |  | Cc1sc2c(c1C)C(c1ccc(N3CCC(C(=O)NCc4ncc(C(=O)N[C@H]5C(C)(C)[C@H](Oc6ccc(C#N)c(Cl)c6)C5(C)C)cn4)CC3)cc1)=N[C@@H](Cc1ncco1)c1nnc(C)n1-2 [Compound I-329] | < 500 | 500 to 1500 |  | 
1500 to 3000 | 500 to 1500 |  |  | Cc1sc2c(c1C)C(c1ccc(CCNC(=O)NCc3ncc(C(=O)N[C@H]4C(C)(C)[C@H](Oc5ccc(C#N)c(Cl)c5)C4(C)C)cn3)cc1)=N[C@H](Cc1ncco1)c1nnc(C)n1-2 [Compound I-330] | < 500 | > 3000 |  | 
 |  | 500 to 1500 | < 500 | Cc1sc2c(c1C)C(c1ccc(N3CCC[C@H](C(=O)NCc4ncc(C(=O)N[C@H]5C(C)(C)[C@H](Oc6ccc(C#N)c(Cl)c6)C5(C)C)cn4)C3)cc1)=N[C@@H](Cc1ncco1)c1nnc(C)n1-2 [Compound I-331] |  |  | < 500 | 500 to 1500
 |  | > 3000 | > 3000 | Cc1sc2c(c1C)C(c1ccc(N3CCC[C@H](C(=O)NCc4ncc(C(=O)N[C@H]5C(C)(C)[C@H](Oc6ccc(C#N)c(Cl)c6)C5(C)C)cn4)C3)cc1)=N[C@@H](Cc1ncco1)c1nnc(C)n1-2 [Compound I-332] |  |  | > 3000 | > 3000
> 3000 | > 3000 |  |  | Cc1sc2c(c1C)C(c1ccc(C(=O)N3CCN(CCc4ncc(C(=O)N[C@H]5C(C)(C)[C@H](Oc6ccc(C#N)c(Cl)c6)C5(C)C)cn4)CC3)cc1)=N[C@@H](Cc1ncco1)c1nnc(C)n1-2 [Compound I-333] | > 3000 | > 3000 |  | 
